Measurements reported in patent US9005965B2, “Stem cells culture systems” (Hadasit Medical Research Services & Development Limited, priority 2004, dated 2015).
Entries after “also recorded” stand apart in the source; their conditions may differ.

How the values were obtained:
Type in all cases: cell-based, human
hESC-derived EBs [1] = assay: EB formation in presence or absence of nicotinamide: morphology, size, cell number; conditions: for number of cells versus controls: comparable number of starting cells
Description: (§1) Human ES cells were removed from the feeders by treatment with dispase (10 mg/ml; Gibco), and/or type IV collagenase (1 mg/ml; Gibco). The clusters of undifferentiated cells that were obtained were further triturated into smaller clumps within PBS. These clumps were cultured for various periods in suspension within bacteriological dishes precoated with 0.1% low melting temperature agarose in DMEM (Gibco), supplemented with 10-20% FCS (Biological Industries, Beit Haemek), 1 mM L-glutamine, 0.1 mM β-mercaptoethanol, 1% non-essential amino acid stock, 50 units/ml penicillin, 50 μg/ml streptomycin (all from Gibco Invitrogen Corporation products, USA) in the presence or absence of nicotinamide 10 mM (Sigma). In some experiments DMEM and FCS were replaced by 86% KO-DMEM and 14% KOSR or by Neurobasal medium supplemented by N2 (Gibco).

hESC-derived EBs [2] = assay: Gene expression profile of EBs by affymetrix gene arrays
hESC-derived EBs [3] = assay: Neural precursor marker expression in EBs (FACS, indirect immunofluorescence)
Description: (§2) EBs were dissociated into smaller clusters mechanically with/without the aid of trypsin (0.025%, 3 mM EDTA in PBS) digestion. The small clusters of cells were plated on poly-D-lysine (30-70 kDa, 10 μg/ml; Sigma, St. Louis, Mo.) and laminin-coated (4 μg/ml; Sigma) glass coverslips and cultured for additional 3-5 weeks in the culture medium used for suspension culture of EBs or neural spheres. Differentiated cells within the outgrowth were fixed with 4% paraformaldehyde for 20 minutes at room temperature. Cell membranes were permeabilized with 0.2% Triton X100 (Sigma) in PBS for 5 minutes for immunostaining with ant-intracellular markers antibodies. The cells were incubated with the following primary antibodies: anti β-tubulin III (mouse monoclonal IgG2b, 1:2000, Sigma), anti human alphafetoprotein (mouse monoclonal IgG2a, 1:200, Sigma), anti human muscle actin (mouse monoclonal IgG1, 1:10, Dako) and anti human desmin (mouse monoclonal IgG1,κ, 1:10, Dako), anti-Pax6 (Developmental Studies Hybridoma Bank; mouse monoclonal IgG1, 1:100), anti-MITF (Lab Vision Corporation, Fremont, Calif.; mouse IgG1, 1:50), anti-RPE65 (Novus Biologicals, Littleton, Colo.; mouse IgG1, 1:300), anti-Bestrophin (Novus Biologicals, Littleton, Colo.; mouse IgG1, 1:150), anti-ZO-1 (Zymed Laboratories Inc., South San Francisco, Calif.; rabbit polyclonal, 1:10) and anti-CRALBP (kindly provided by John C. Saari, University of Washington, Seattle; rabbit polyclonal, 1:100).

hESC-derived EBs [4] = assay: Immunocytochemical and RT-PCR analysis of EBs
Description: EBs that were developed 4 weeks in suspension culture in the presence and absence of nicotinamide (NA), were fixed in 4% paraformaldehyde at room temperature overnight. The EBs were then concentrated at the bottom of a centrifuge tube and embedded in agar. The agar blocks were dehydrated, and embedded in paraffin. 5-micron sections were immuno-stained with anti-human cytokeratin-8 and anti-α-fetoprotein (both at 1:50, monoclonal mouse IgG, DAKO). Primary antibody localization was performed using Picture™ plus kit (Zymed). For RT PCR analysis, total RNA was collected from EBs that were developed 4 weeks in suspension culture in the presence and absence of nicotinamide (NA). Total RNA was isolated using TRI REAGENT (Sigma) and converted into complementary cDNA with M-MLV reverse transcriptase (Promega). PCR was carried out using standard protocols with Taq DNA Polymerase (Promega). Amplification conditions were as follows: denaturation at 94° C. for 60 seconds, annealing at 55-60° C. for 60 seconds, and extension at 72° C. for 60 seconds. The number of cycles was 35 Primer sequences and lengths of amplified products were: […]

hESC-derived EBs [5] = assay: Differentiation towards RPE (pigmented) cells within EBs
Description: as §1
Differentiation into neural spheres was conducted according to the published protocol (Itsykson, P., et al. Derivation of neural precursors from human embryonic stem cells in the presence of noggin. Mol Cell Neurpsci 30, 24-36 (2005). Spheres were dissociated mechanically by trituration. Pigmented clusters of cells within EBs, differentiating 8-10 weeks were mechanically dissected by glass micropipettes or scalpel blades.
as §2

cord-derived fibroblasts = assay: Propagation of cord-derived feeders with FGF2 supplementation; conditions: medium supplemented with FGF2; FIG. 16
Description: Term umbilical cord tissue was minced as above, and the small pieces of tissue were plated in the fibroblast culture medium, as described above. To promote the adherence of the tissue pieces to the culture dish, flasks were incubated upright overnight. Cells emanating from the tissue pieces were propagated as above.

hESC [6] = assay: hESC culture on dishes pre-coated with different matrices; FACS marker expression
Description: Human embryonic fibroblasts derived from umbilical cord as described herein or foreskin fibroblasts were used as feeders. The feeders were plated in tissue culture dishes precoated with 1 μg/cm^2 human Fibronectin (BD Biosciences, Bedford, Mass.) or 100 μg/ml recombinant Gelatin (FibroGen, SF). Mitotic inactivation was carried out by incubating the feeders 2.5 hours with Mitomycin-C (Kyowa, Tokyo). KO DMEM (Gibco), X-Vivo 10 (Biowhittaker, Maryland), or Cellgro Stem Cell Growth Medium (CellGenix Freiburg, Germany) were used as the basic media. They were supplemented with TCH (1-2%; Protide Pharmaceuticals, St. Paul, Minn.) or Nutridoma-CS (2%; Roche, Germany) as serum substitutes. The media were supplemented with 2 mM glutamine (Hyclone, Utah) and non-essential amino acids (NEAA, 1%; Hyclone Utah). HESC were split weekly with Ca/Mg^++-free PBS supplemented with 0.05% EDTA.
FACS analysis of marker expression was performed on hESC after disaggregation using Ca/Mg^++-free PBS supplemented with 0.05% EDTA. The cells were then washed with FACS media consisting of PBS supplemented with 1% BSA and 0.05% sodium azide. The single cell suspension was stained with anti-SSEA4 (1:100, mouse monoclonal IgG3, Developmental Studies Hybridoma Bank (DHSB), Iowa City, Iowa), and anti-Tra-1-60 (1:20, monoclonal mouse IgM, gift from Prof. P. Andrews), anti-Tra-1-81 (1:100, monoclonal mouse IgM, Chemicon International), anti-human Oct 4 (mouse monoclonal IgG2b, 1:50, Santa Cruz), and anti-SSEA1 (1:100, Chemicon). Control hESC were stained with the respective isotype control antibodies. Primary antibodies were detected with a FITC-labeled goat anti-mouse Ig (1:100, Dako).

hESC [7] = assay: Suspension culture of hESC in NBN2 medium; conditions: NBN2, in the presence of FGF2, 3 weeks
Description: In the course of the routine passaging procedure, HESC colonies were dissociated with 0.05% of EDTA for 7-10 min at 37°, or mechanically with the aid of collagenase IV (1 mg/ml, 120 min at 37°). Cell dissociation was promoted by gentle blowing of the medium with a 1 ml pipette tip towards the hESC colonies. The cells/cell-clusters were re-suspended in NBN2 medium (Neurobasal, N2 supplement 1:100, glutamine 2 mM, 50 units/ml penicillin, 50 μg/ml streptomycin) supplemented with bFGF 20 ng/ml, noggin 250 ng/ml, activin 25-50 ng/ml, fibronectin and laminin 5 ng/ml each, gelatin 0.001%. The suspension may be strained though 30-50 micron mesh to remove big clumps and transferred into tissue culture dishes (Costar®, Corning Inc., Corning, N.Y., USA) at a density of ˜0.7-1.2×10^6 cells/ml. Dead cells and their fragments were gradually removed during media refreshment and small transparent cell aggregates emerged from the 3rd-5th days of suspension culture. The cells proliferated as free-floating tiny clusters of 20-50 cells. Aggregation and overgrowth of clusters was prevented by their daily trituration with a 1000 μl pipettor tip. Alternatively, every 7 days clusters were dissociated with Ca/Mg-free PBS supplemented with 3 mM EDTA and 0.06% trypsin and the single cells were resuspended in fresh medium. […]

[8] = 4 weeks suspension culture, presence vs absence of NA
[9] = in the presence of NA, indirect immunofluorescence
[10] = Cellgro medium with 2% TCH, matrix coating

NC(=O)c1cccnc1 [NA, nicotinamide]
development of cystic structures in EBs (hESC-derived EBs [1]; EBs cultured in the presence of RA and NA): infrequent; also recorded: blocked the effects of RA | morphology of differentiated cells within EBs (hESC-derived EBs [1]; NA 10 mM): acquired the morphology of neural precursor cells | prolonged culture of EBs (hESC-derived EBs [1]; NA treatment): 12 weeks | number of cells versus controls (hESC-derived EBs [1]; after 2 weeks): 5.4 times | number of cells versus controls (hESC-derived EBs [1]; after 4 weeks): 33 times | formation of cystic structures within EBs (hESC-derived EBs [1]; chemically-defined medium (NBN2), 2-5 weeks): not observed | effect of RA on number of differentiated cells (hESC-derived EBs [1]; medium with RA supplemented with NA): blocked | size of EBs (maximal diameter) versus EBs without NA (hESC-derived EBs [1]; serum-free medium, two weeks of differentiation): 1.7 times | formation of cystic structures within EBs (hESC-derived EBs [1]; serum-supplemented medium, NA 10 mM): not formed; also recorded: not observed | number of genes down-regulated (hESC-derived EBs [2]; [8]): 630 genes | number of genes up- or down-regulated by at least two-fold (hESC-derived EBs [2]; [8]): 1072 genes | number of genes up-regulated (hESC-derived EBs [2]; [8]): 442 genes | expression of chordin-like-1 gene (hESC-derived EBs [2]; gene arrays, confirmed by RT PCR): up-regulated | expression of LEFT A & B and PITX1 (hESC-derived EBs [2]; gene arrays, 4 weeks): down regulated | expression of Wnt signaling pathway genes (Wnt4, Wnt 2B, FZD1, FZD2, FZD3, FZD10) (hESC-derived EBs [2]; gene arrays, 4 weeks): induced | expression of ZIC1 (hESC-derived EBs [2]; gene arrays, 4 weeks): remarkably up-regulated | expression of cytokeratins 7, 18, 19, 23 (hESC-derived EBs [2]; gene arrays, 4 weeks): suppressed | expression of α-fetoprotein and cytokeratin-8 (hESC-derived EBs [2]; gene arrays, 4 weeks): suppressed | percentage of cells expressing PSA-NCAM (hESC-derived EBs [3]; 6 weeks in the presence of NA, FACS): 85.5% | percentage of cells expressing nestin (hESC-derived EBs [3]; [9]): 58.3% | percentage of cells expressing β-tubulin III (hESC-derived EBs [3]; [9]): 67.8% | expression of cytokeratin-8 within EBs (hESC-derived EBs [4]; 4 weeks in the presence of NA, immunocytochemistry): not demonstrated; also recorded: only a few cells | expression of α-fetoprotein within EBs (hESC-derived EBs [4]; differentiation in the presence of NA, immunocytochemistry and RT-PCR): not detected; also recorded: suppressed; also recorded: only a few cells | percentage of EBs that included clusters of pigmented cells (hESC-derived EBs [5]; 5 weeks of differentiation in the presence of NA): 34% | percentage of EBs that included clusters of pigmented cells (hESC-derived EBs [5]; 6 weeks of differentiation in the presence of NA): 59% | percentage of EBs that included clusters of pigmented cells (hESC-derived EBs [5]; 12 weeks of differentiation in the presence of NA): 70% | expression of the RPE markers RPE65 and MITF A (hESC-derived EBs [5]; Real Time PCR, 6 weeks, versus control EBs): significantly increased; also recorded: induction | percentage of cells within the EBs that were pigmented (hESC-derived EBs [5]; after 6 weeks of differentiation): 9%

FGF2: growth factor supplementing the medium
proliferation of the fibroblasts (cord-derived fibroblasts): could be augmented

gelatin
percentage of SSEA-4+ cells (hESC [6]; [10]): 97% | percentage of Tra-1-60+ cells (hESC [6]; [10]): 92% | percentage of SSEA-4+ hESC (hESC [6]; foreskin feeder layer, KO DMEM+KO SR, plates precoated with the matrix): 91%

B1: noggin: BMPs antagonist, 250 ng/ml (protein, UniProt Q13253 28-232, looked up)
Noggin: QHYLHIRPAPSDNLPLVDLIEHPDPIFDPKEKDLNETLLRSLLGGHYDPGFMATSPPEDRPGGGGGAAGGAEDLAELDQLLRQRPSGAMPSEIKGLEFSEGLAQGKKQRLSKKLRRKLQMWLWSQTFCPVLYAWNDLGSRFWPRYVKVGSCFSKRSCSVPEGMVCKPSKSVHLTVLRWRCQRRGGQRCGWIPIQYPIISECKCSC
effect on survival/proliferation of hESC in suspension (hESC [7]; FIG. 23B): could promote survival/proliferation

B2: activin A: TGFβ superfamily factor, 25-50 ng/ml (protein, UniProt P08476 311-426, looked up)
Inhibin beta A chain: GLECDGKVNICCKKQFFVSFKDIGWNDWIIAPSGYHANYCEGECPSHIAGTSGSSLSFHSTVINHYRMRGHSPFANLKSCCVPTKLRPMSMLYYDDGQNIIKKDIQNMIVEECGCS
modifications: Inhibin beta A chain
notes: TGFβ superfamily factor, 25-50 ng/ml
effect on differentiation of hESC in suspension (hESC [7]; FIG. 23A): prevented differentiation
